Earlier results on four molecules are cited in patent publication US20100003322A1, “ENTERIC COATED HYDROPHOBIC MATRIX FORMULATION” (priority 2008, published 2010).

The structures appear in SMILES notation. Counter-ions that a name gives are not always drawn.

For the data set the following is noted: for solubility as described in the package insert: water, for gabapentin also basic and acidic aqueous solutions; for water solubility: volume of water that dissolves 1 g: 1 g of drug in the stated ml of water.

In the case of `NCC1(CC(=O)O)CCCCC1` [gabapentin, 1-(aminomethyl)cyclohexaneacetic acid], the “solubility as described in the package insert” value is “freely soluble”.

As for `CC[C@@H](C(N)=O)N1CCCC1=O` [levetiracetam, (−)-(S)-α-ethyl-2-oxo-1-pyrrolidine acetamide], the “solubility as described in the package insert” value is “very soluble”. For the same molecule, the “water solubility: amount dissolved in 100 ml of water” value (in 100 ml of water) was “approximately 104 grams”.

As for `CCCC(CCC)C(=O)[O-].[Na+]` [sodium valproate, sodium 2-propylpentanoate], the “water solubility: volume of water that dissolves 1 g” value is 0.4 mL.

Regarding `COc1cccc(C2(O)CCCCC2CN(C)C)c1` (centres unmarked) [tramadol hydrochloride], the “water solubility: volume of water that dissolves 1 g” value is approximately 33 mL.
